The record followed here is patent publication US7045532B2 (Millennium Pharmaceuticals, Inc., priority 1999, dated 2006).

For test [1], the target named is T1, ACE-2 (Homo sapiens, UniProt Q9BYF1).
T1 construct: a stop codon inserted after the serine immediately preceding the transmembrane domain; made in house; host or cells: CHO K1 cells (transient transfection, purified from conditioned medium)
In words: ACE-2 Competitive Substrate Assay (ACS Assay). Conditions: Ki class; compounds tested in 5% DMSO, 12 concentrations; read-out: Human ACE-2 Activity. Type of test: biochemical.

Test [2] concerns the target T2, ACE (Sigma, A2580) (Sus scrofa, UniProt F1RRW5).
T2 construct: ACE from porcine kidney; purchased Sigma A2580; host or cells: porcine kidney
T2 sequence (F1RRW5 34-1309): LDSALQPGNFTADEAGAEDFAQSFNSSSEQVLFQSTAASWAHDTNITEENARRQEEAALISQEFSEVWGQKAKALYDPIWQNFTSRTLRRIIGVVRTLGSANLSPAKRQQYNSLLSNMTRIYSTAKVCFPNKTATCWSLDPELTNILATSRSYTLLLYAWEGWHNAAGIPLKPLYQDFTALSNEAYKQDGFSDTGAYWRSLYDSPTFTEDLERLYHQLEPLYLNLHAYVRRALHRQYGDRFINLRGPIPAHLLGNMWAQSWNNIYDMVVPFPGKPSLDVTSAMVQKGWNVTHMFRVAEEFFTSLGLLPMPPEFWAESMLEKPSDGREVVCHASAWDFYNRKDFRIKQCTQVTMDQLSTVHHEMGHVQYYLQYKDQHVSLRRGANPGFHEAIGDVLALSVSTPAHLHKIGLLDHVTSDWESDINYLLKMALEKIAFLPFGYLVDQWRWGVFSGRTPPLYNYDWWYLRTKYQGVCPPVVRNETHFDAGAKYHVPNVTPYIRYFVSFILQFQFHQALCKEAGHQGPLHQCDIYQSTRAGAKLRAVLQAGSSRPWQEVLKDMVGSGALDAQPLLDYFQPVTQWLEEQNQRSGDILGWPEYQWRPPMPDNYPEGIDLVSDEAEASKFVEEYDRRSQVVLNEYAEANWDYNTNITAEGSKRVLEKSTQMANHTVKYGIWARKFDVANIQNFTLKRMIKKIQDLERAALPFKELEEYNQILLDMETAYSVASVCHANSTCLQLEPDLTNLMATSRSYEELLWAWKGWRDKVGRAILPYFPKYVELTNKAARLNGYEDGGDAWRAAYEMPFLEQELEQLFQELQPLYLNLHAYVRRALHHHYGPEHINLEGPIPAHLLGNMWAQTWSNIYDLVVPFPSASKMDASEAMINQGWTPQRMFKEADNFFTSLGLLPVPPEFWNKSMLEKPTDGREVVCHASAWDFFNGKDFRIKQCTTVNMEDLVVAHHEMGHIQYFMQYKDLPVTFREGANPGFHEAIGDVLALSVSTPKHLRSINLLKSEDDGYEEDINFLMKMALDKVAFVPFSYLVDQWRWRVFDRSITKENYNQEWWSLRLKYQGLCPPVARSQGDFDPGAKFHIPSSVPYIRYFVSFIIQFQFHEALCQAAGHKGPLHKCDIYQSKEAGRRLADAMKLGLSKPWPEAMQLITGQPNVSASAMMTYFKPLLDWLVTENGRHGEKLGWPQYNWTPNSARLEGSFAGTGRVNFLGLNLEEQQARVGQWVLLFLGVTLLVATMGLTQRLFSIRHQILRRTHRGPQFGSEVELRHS
The test can be described thus: ACE enzymatic activity assay. Type of test: biochemical, porcine. Particulars: Ki class; compounds tested in 5% DMSO, 12 concentrations. The procedure:
ACE (Sigma, A2580) enzymatic activity was assayed in microtiter plates using the following protocol. ACE assay buffer was made from 50 mM HEPES (Sigma), 300 mM sodium chloride (Sigma), and 0.01% Brij-35 (Pierce Chemical Co) at pH 7.5.
Reactions were mixed and incubated at 25° C. Enzymatic cleavage of the substrate is marked by a fluorescence change (excitation 330 nm, emission 415 nm).
The activity of the test compounds was investigated using the procedure outlined above. The compounds were tested in 5% DMSO. Enzyme activity was measured at 12 compound concentrations. […]. […]

Test [3] addresses T3, Carboxypeptidase A (Bos taurus, UniProt P00730).
T3 sequence (P00730 111-419): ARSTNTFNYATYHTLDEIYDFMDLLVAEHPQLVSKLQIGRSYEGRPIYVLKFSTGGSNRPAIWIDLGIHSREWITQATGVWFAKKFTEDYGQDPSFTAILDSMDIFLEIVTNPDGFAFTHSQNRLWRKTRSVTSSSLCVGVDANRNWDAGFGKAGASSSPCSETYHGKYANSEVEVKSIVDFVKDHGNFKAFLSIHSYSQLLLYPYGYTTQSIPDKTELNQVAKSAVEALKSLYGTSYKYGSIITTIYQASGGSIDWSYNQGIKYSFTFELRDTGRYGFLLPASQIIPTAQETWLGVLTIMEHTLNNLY
In words: Carboxypeptidase A activity assay. Particulars: Ki class; compounds tested in 5% DMSO, 12 concentrations. It counts as biochemical. The method, then: Carboxypeptidase A activity was measured using a literature assay (Holmquist and Riordan, “Carboxypeptidase A,” Methods of Enzymatic Analysis (1984) p. 44–60). The assay was adapted to a 96 well format by adjusting to a 300 μL assay volume and using ultra-thin bottom plates (Costar/Corning) read at 328 nm. The assay was stopped using EDTA.
The activity of the test compounds was investigated using the procedure outlined above. The compounds were tested in 5% DMSO. Enzyme activity was measured at 12 compound concentrations. The Ki was calculated by using Ki=Kiapp/(1+[S]/Km).
To determine whether a test compound is capable of modulating carboxypeptidase A's ability to cleave a substrate the method described in Holmquist and Riordan, Carboxypeptidase A, p44–60, Peptidase and Their Inhibitors in Method of Enzymatic Analysis (1984), may be used.
The assay may be adapted to a 96 well format by adjusting to a 300 μl assay volume and using ultrathin bottom plates (Costar/Coming) read at 328 nm with a final assay volume of 300 μl. The assay may be stopped using EDTA.

T1 sequence (Q9BYF1 18-740 limits assumed): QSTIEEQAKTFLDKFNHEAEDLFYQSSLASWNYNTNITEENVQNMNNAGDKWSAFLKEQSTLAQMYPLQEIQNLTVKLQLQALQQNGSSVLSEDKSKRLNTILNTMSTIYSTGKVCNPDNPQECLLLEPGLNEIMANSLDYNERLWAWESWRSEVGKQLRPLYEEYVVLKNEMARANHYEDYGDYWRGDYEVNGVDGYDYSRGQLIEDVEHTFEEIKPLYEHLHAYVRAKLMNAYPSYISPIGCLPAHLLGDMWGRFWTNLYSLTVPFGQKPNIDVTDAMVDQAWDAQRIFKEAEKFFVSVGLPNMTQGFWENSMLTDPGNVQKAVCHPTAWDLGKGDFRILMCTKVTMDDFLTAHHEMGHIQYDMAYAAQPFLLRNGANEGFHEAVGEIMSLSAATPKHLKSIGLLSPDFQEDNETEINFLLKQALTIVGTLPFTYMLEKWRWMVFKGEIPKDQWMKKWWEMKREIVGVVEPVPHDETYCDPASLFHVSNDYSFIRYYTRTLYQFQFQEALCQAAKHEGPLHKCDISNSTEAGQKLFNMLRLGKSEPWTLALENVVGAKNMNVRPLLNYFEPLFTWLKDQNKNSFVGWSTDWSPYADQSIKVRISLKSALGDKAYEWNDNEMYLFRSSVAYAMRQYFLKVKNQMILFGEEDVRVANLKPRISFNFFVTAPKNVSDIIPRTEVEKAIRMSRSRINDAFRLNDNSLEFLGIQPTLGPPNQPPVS

Take `CCCC(N[C@@H](Cc1c[nH]cn1)C(=O)O)C(=O)O` (stereo in doubt) [AF, 2-[1-Carboxy-2-(1H-imidazol-4-yl)-ethylamino]pentanoic acid]: the Ki in test [1] was greater than 0.5 µM; in test [2] it was greater than 50 µM; in test [3], greater than 50 µM.

Consider `CCCC(N[C@@H](CCSC)C(=O)O)C(=O)O` (stereo in doubt) [AO, 2-(1-Carboxy-3-methylsulfanyl-propylamino)-pentanoic acid], for which the values for the Ki in test [1], in test [2] and in test [3] were greater than 0.5 µM, greater than 50 µM and greater than 50 µM, respectively.

Consider `CCCC(N[C@@H](CC(C)C)C(=O)O)C(=O)O` (stereo in doubt) [AQ, 2-(1-Carboxy-butylamino)-4-methyl-pentanoic acid], for which the Ki is greater than 0.5 µM in test [1], greater than 50 µM in test [2] and greater than 50 µM in test [3].

`CC(C)C[C@H](NC(C(=O)O)c1ccc(C(F)(F)F)cc1)C(=O)O` (stereo in doubt) [AR, 2-{[Carboxy-(4-trifluoromethyl-phenyl)-methyl]-amino}-4-methyl-pentanoic acid]: the Ki is greater than 0.5 µM in test [1], greater than 50 µM in test [2] and greater than 50 µM in test [3].

With `CC(C)CC(N[C@H](CC(=O)O)Cc1ccsc1)C(=O)O` (stereo in doubt) [EJ, 2-(1-Carboxymethyl-2-thiophen-3-yl-ethylamino)-4-methyl-pentanoic acid], the Ki is greater than 0.5 µM in test [1], greater than 50 µM in test [2] and greater than 50 µM in test [3].

Regarding `CCCC(N[C@@H](Cc1ccccc1)C(=O)O)C(=O)O` (stereo partly drawn) [AA, 2-(1-Carboxy-2-phenyl-ethylamino)-pentanoicacid], the figures for the Ki in test [1], in test [2] and in test [3] were greater than 0.5 µM, greater than 50 µM and greater than 50 µM, respectively.

`O=C(O)C(CO)N[C@@H](CCc1ccccc1)C(=O)O` (stereo partly drawn) [AB, 2-(1-Carboxy-2-hydroxy-ethylamino)-4-phenyl-butync acid]: the figures for the Ki in test [1], in test [2] and in test [3] were greater than 0.5 µM, greater than 50 µM and greater than 50 µM, respectively.

On to `CC(N[C@@H](Cc1c[nH]c2ccccc12)C(=O)O)C(=O)O` (stereo partly drawn) [AG, 2-(1-Carboxy-ethylamino)-3-(1H-indol-3-yl)-propionic acid], for which the Ki in test [1] is greater than 0.5 µM; in test [2], greater than 50 µM; in test [3], greater than 50 µM.

As for `CC(NC(Cc1cccs1)C(=O)O)C(=O)O` (stereo not drawn) [AH, 2-(1-Carboxy-ethylamino)-3-thiophen-2-yl-propionic acid], the values for the Ki in test [1], in test [2] and in test [3] were greater than 0.5 µM, greater than 50 µM and greater than 50 µM, respectively.

As to `CCCC(NC(Cc1cccs1)C(=O)O)C(=O)O` (stereo not drawn) [AI, 2-(1-Carboxy-2-thiophen-2-yl-ethylamino)-pentanoic acid], the Ki in test [1] was greater than 0.5 µM; in test [2], greater than 50 µM; in test [3], greater than 50 µM.

Consider `O=C(O)C(CCc1ccccc1)N[C@@H](Cc1ccccc1)C(=O)O` (stereo partly drawn) [AJ, 2-(1-Carboxy-2-phenyl-ethylamino)-4-phenyl-butync acid], for which the Ki in test [1] was greater than 0.5 µM; in test [2], greater than 50 µM; in test [3], 10 to 50 µM.

Turning to `CCC(NC(Cc1cccs1)C(=O)O)C(=O)O` (stereo not drawn) [AK, 2-(1-Carboxy-2-thiophen-2-yl-ethylamino)-butync acid], the Ki was greater than 0.5 µM in test [1], greater than 50 µM in test [2] and greater than 50 µM in test [3].

As for `CC(C)CC(NC(Cc1cccs1)C(=O)O)C(=O)O` (stereo not drawn) [AL, 2-(1-Carobxy-2-thiophen-2-yl-ethylamino)-4-methyl-pentanoic acid], the Ki in test [1] was greater than 0.5 µM; in test [2], greater than 50 µM; in test [3], greater than 50 µM.

Take `CSCC[C@H](NC(C)C(=O)O)C(=O)O` (stereo partly drawn) [AM, 2-(1-Carboxy-ethylamino)-4-methylsulfanyl-butync acid]: the Ki in test [1] was greater than 0.5 µM; in test [2] it was greater than 50 µM; in test [3], greater than 50 µM.

As for `CSCC[C@H](NC(CC(C)C)C(=O)O)C(=O)O` (stereo partly drawn) [AN, 2-(1-Carboxy-3-methylsulfanyl-propylamino)-4-methyl-pentanoic acid], the Ki in test [1] was greater than 0.5 µM; in test [2], greater than 50 µM; in test [3] it was 10 to 50 µM.

Regarding `CC(N[C@H](CCc1ccccc1)C(=O)O)C(=O)O` (stereo partly drawn) [AW, 2-(1-Carboxy-ethylamino)-4-phenyl-butync acid], the Ki is greater than 0.5 µM in test [1], greater than 50 µM in test [2] and greater than 50 µM in test [3].

`O=C(O)C(CCc1ccccc1)N[C@@H](CC1CCCCC1)C(=O)O` (stereo partly drawn) [BG, 2-(1-Carboxy-2-cyclohexyethylamino)-4-phenyl-butync acid]: the values for the Ki in test [1], in test [2] and in test [3] were greater than 0.5 µM, greater than 50 µM and greater than 50 µM, respectively.

For `CC(C)C[C@@H](NC(CCc1ccccc1)C(=O)O)C(=O)O` (stereo partly drawn) [BH, 2-(1-Carboxy-3-phenyl-propylamino)-4-methyl-pentanoic acid], the Ki in test [1] was greater than 0.5 µM; in test [2], greater than 50 µM; in test [3] it was greater than 50 µM.

Turning to `C#CCC(N[C@@H](C(=O)O)c1ccccc1)C(=O)O` (stereo partly drawn) [BN, 2-[(Carboxy-phenyl-methyl)-amino]-pent-4-ylnoic acid], the Ki in test [1] was greater than 0.5 µM; in test [2], greater than 50 µM; in test [3] it was greater than 50 µM.

For `O=C(O)C(Cc1ccccc1)NC(C(=O)O)c1ccccc1` (stereo not drawn) [BO, 2-[(Carboxy-phenyl-methyl)-amino]-3-phenyl-propionic acid], the Ki in test [1] was greater than 0.5 µM; in test [2], greater than 50 µM; in test [3] it was 10 to 50 µM.

Consider `O=C(O)[C@H](CC1CCCCC1)N[C@@H](C(=O)O)c1ccccc1` [BP, 2-[(Carboxy-phenyl-methyl)-amino]-3-cyclohexyl-propionic acid], for which the Ki in test [1] is greater than 0.5 µM; in test [2] it was greater than 50 µM; in test [3], greater than 50 µM.

Turning to `CCCC[C@H](N[C@@H](C(=O)O)c1ccccc1)C(=O)O` [BX, 2-[(Carboxy-phenyl-methyl)-amino]-hexanoicacid], the figures for the Ki in test [1], in test [2] and in test [3] were greater than 0.5 µM, greater than 50 µM and greater than 50 µM, respectively.

`O=C(O)[C@H](NC1(C(=O)O)CCCCC1)c1ccccc1` [BY, 1-[(Carboxy-phenyl-methyl)-amino]-cyclohexanecarboxylic acid]: the Ki is greater than 0.5 µM in test [1], greater than 50 µM in test [2] and greater than 50 µM in test [3].
